This note sets out measurements from patent publication US20030180777A1, “Rapid identification of transcriptional regulatory domains” (priority 2002, published 2003).

Holding throughout (assay type): cell-based
The target of test [1] is T1, P2X7 (Mus musculus, UniProt Q9Z1M0).
T1 construct: mouse Neuro-2A cells (expressing P2X7); endogenous in cells; host or cells: mouse Neuro-2A cells
T1 sequence (Q9Z1M0 1-595): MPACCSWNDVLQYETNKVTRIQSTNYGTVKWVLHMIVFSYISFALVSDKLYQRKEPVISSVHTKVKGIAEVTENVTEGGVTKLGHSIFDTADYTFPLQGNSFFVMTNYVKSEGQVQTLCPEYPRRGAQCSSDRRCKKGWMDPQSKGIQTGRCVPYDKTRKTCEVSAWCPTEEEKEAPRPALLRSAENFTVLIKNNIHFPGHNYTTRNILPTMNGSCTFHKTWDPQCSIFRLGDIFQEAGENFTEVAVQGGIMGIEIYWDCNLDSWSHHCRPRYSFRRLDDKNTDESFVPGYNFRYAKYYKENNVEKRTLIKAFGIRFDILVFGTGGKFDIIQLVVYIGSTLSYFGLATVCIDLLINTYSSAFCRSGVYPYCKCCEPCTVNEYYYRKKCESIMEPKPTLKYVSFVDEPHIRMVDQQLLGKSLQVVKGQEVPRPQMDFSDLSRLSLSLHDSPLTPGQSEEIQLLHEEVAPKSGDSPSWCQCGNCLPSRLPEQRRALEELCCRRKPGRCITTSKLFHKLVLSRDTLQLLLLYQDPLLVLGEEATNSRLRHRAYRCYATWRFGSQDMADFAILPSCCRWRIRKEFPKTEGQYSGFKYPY
The test is described as follows: BzATP-induced EtBr uptake in Neuro-2A cells by FACS. The procedure: To test the suitability of the P2X7 gene as a reporter for high-throughput screening for repression domains, mouse Neuro-2A cells (expressing P2X7) were transiently transfected with a plasmid expressing a zinc finger DNA-binding domain targeted to the P2X7 gene (ZFP #5493) linked to a KOX1 repression domain. Control Neuro-2A cells were transfected with a vector lacking both library sequences and ZFP-encoding sequences (i.e., empty vector). Cells were treated for 10 minutes with different concentrations of BzATP (ranging from 0 to 1 mM), and EtBr was then added to a final concentration of 10 μM. After 20 minutes, cells were harvested by centrifugation, washed in PBS and analyzed by FACS.
Background: In flow cytometry, cells or beads pass a laser one at a time.

Test [2] concerns the target T1, P2X7. The test is described as follows: BzATP-induced YO-PRO-1 uptake in Neuro-2A cells by flow cytometry. The note with it: 0.2 mM BzATP, FIG. 1 left panel. The procedure:
ZFP/KOX-1-expressing cells were also assayed for P2X7 activity by measuring their ability to take up the DNA-binding dye YO-PRO-1, as follows. Seven days after the initial BzATP treatment, pools of clones containing 2-5×10^5 cells were incubated with 0.2 mM BzATP for 10 minutes in HKS Buffer (125 mM KCl, 1 mM EDTA, 5 mM glucose, 20 mM HEPES-KOH, pH 7.4). YO-PRO-1 (Molecular Probes, Inc., Eugene, Oreg.) was added to a final concentration of 5 μM. After an additional 25 min incubation in the presence of the dye, the cells were washed with PBS, collected by centrifugation, resuspended in PBS, and analyzed by FACS on a Beckman-Coulter EPICS XL flow cytometer.

For test [3], the target named is T1, P2X7. The test is described as follows: BzATP-induced death of Neuro-2A cells. The method, then:
To test this selection method, Neuro-2A cells were transiently transfected with empty vector (see Example 3 supra) or with a plasmid expressing a KOX1 repressor domain linked to the P2X7-targeted zinc finger binding domain ZFP #5493. 48 hours after transfection, cells were detached from the plate with Trypsin-EDTA, collected by centrifugation and resuspended in HKS assay buffer (125 mM KC1, 1 mM EDTA, 5 mM glucose, 20 mM HEPES, pH 7.4 adjusted with KOH). Resuspended cells were mixed with BzATP (final concentrations ranging from 0 to 1 mM) and plated onto 6 well plates (1×10^5 cells/well in 1 ml HKS). After a 2h incubation at 37° C. in a cell incubator, cells were washed with PBS, and growth medium (minimal essential medium with Earle's salts and non-essential amino acids, adjusted to contain 2 mM L-glutamine, 1.5 g/L Na bicarbonate, 1.0 mM Na pyruvate and 10% fetal bovine serum) was added to plates.

benzoylbenzoyl ATP [BzATP]: the “EtBr accumulation at higher concentrations of BzATP” value at P2X7 [1] (BzATP above 0.04 mM, range tested up to 1 mM) was “induced significant accumulation of EtBr”. In addition, the “EtBr uptake at low concentrations of BzATP” value at P2X7 [1] (BzATP up to 0.04 mM) was “did not induce significant uptake of EtBr”. On P2X7 [2], the “YO-PRO-1 uptake by control uninfected cells in the presence of BzATP” value is given as “substantial amounts of YO-PRO-1”. Further, the “cell death at relatively low concentrations of BzATP” value on P2X7 [3] (BzATP >20 μM, cells transfected with either empty vector or the ZFP-KOX construct) is “some death of cells”. In addition, the “survival of cells transfected with empty vector” value at P2X7 [3] (BzATP concentrations >100 μM) is “almost no survival”.
